Results from patent US20230203043A1, “NOVEL IMIDAZOPYRAZINE DERIVATIVES” (Hoffmann-La Roche Inc., priority 2020, published 2023).
Structures can show the parent of a compound that is named as a salt. Where two headings read alike, the source gives them in different places.

System: Acinetobacter baumannii ATCC17961
Test: Antimicrobial susceptibility testing: 90% growth inhibitory concentration (IC90) determination in Iso-Sensitest broth, OD600 growth
Assay type: cell-based
Conditions: Acinetobacter baumannii, ATCC17961, 16 h
Method in brief: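 Growth inhibition is calculated during the logarithmic phase from OD600 readings taken every 20 minutes across 16 h at 35±2° C. Bacteria at ~5×10^(5) CFU/ml face twofold dilution series (e.g. 50 to 0.097 μM final).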

[1] = read-out: A. baumannii ATCC 17961 IC90 (uM), strain ATCC 17961, OD600 growth over 16 h
[2] = strain ATCC 17961, OD600 growth over 16 h, read-out: A. baumannii ATCC 17961 IC90

| SMILES | IC90 [1] [µM] | IC90 [2] [µM] |
| --- | --- | --- |
| Cc1cc(Nc2nccn3c(-c4cn(CC#N)nc4C(F)(F)F)cnc23)ccc1C(=O)N1CCN(C(=O)[C@@H]2CCNC[C@@H]2O)CC1 [Example 421, formic acid; 2-[4-[8-[4-[4-[(3R,4R)-3-hydroxypiperidine-4-carbonyl]piperazine-1-carbonyl]-3-methylanilino]imidazo[1,2-a]pyrazin-3-yl]-3-(trifluoromethyl)pyrazol-1-yl]acetonitrile] | 0.629 | – |
| Cc1cc(Nc2nccn3c(-c4cn(CC#N)nc4C(F)(F)F)cnc23)ccc1C(=O)N1CCN(C(=O)[C@@H]2C[C@@H](O)CN2)CC1 [Example 422, formic acid; 2-[4-[8-[4-[4-[(2S,4R)-4-hydroxypyrrolidine-2-carbonyl]piperazine-1-carbonyl]-3-methylanilino]imidazo[1,2-a]pyrazin-3-yl]-3-(trifluoromethyl)pyrazol-1-yl]acetonitrile] | 0.63 | – |
| Cc1cc(Nc2nccn3c(-c4cn(CC#N)nc4C(F)(F)F)cnc23)ccc1C(=O)N1CCN(C(=O)[C@@H]2C[C@](C)(O)CN2)CC1 [Example 424, formic acid; 2-[4-[8-[4-[4-[(2S,4S)-4-hydroxy-4-methylpyrrolidine-2-carbonyl]piperazine-1-carbonyl]-3-methylanilino]imidazo[1,2-a]pyrazin-3-yl]-3-(trifluoromethyl)pyrazol-1-yl]acetonitrile] | 0.685 | – |
| Cc1cc(Nc2nccn3c(-c4cn(CC#N)nc4C(F)(F)F)cnc23)ccc1C(=O)N1CCN(C(=O)C2(O)CCNCC2)CC1 [Example 425, formic acid; 2-[4-[8-[4-[4-(4-hydroxypiperidine-4-carbonyl]piperazine-1-carbonyl]-3-methylanilino]imidazo[1,2-a]pyrazin-3-yl]-3-(trifluoromethyl)pyrazol-1-yl]acetonitrile] | 0.691 | – |
| Cc1cc(Nc2nccn3c(-c4cn(CC#N)nc4C(F)(F)F)cnc23)ccc1C(=O)N1CCN(C(=O)[C@H]2C[C@H](O)CN2)CC1 [Example 426, formic acid; 2-[4-[8-[4-[4-[(2R,4S)-4-hydroxypyrrolidine-2-carbonyl]piperazine-1-carbonyl]-3-methylanilino]imidazo[1,2-a]pyrazin-3-yl]-3-(trifluoromethyl)pyrazol-1-yl]acetonitrile] | 0.948 | – |
| Cc1cc(Nc2nccn3c(-c4c[nH]nc4C(F)(F)F)cnc23)ccc1C(=O)N1CCN(C(=O)NCCN)CC1 [Example 428, N-(2-aminoethyl)-4-[2-methyl-4-[[3-[3-(trifluoromethyl)-1H-pyrazol-4-yl]imidazo[1,2-a]pyrazin-8-yl]amino]benzoyl]piperazine-1-carboxamide formate] | 0.465 | – |
| O=C(NCCCNC(=O)[C@@H]1C[C@@H](O)CN1)c1ccc(Nc2nccn3c(-c4c[nH]nc4C(F)(F)F)cnc23)cc1Cl [Example 429, (2S,4R)-N-[3-[[2-chloro-4-[[3-[3-(trifluoromethyl)-1H-pyrazol-4-yl]imidazo[1,2-a]pyrazin-8-yl]amino]benzoyl]amino]propyl]-4-hydroxypyrrolidine-2-carboxamide formate] | 1.07 | – |
| CCc1cc(Nc2nccn3c(-c4c[nH]nc4C(F)F)cnc23)ccc1C(=O)NCCOCCN [Example 430, N-[2-(2-aminoethoxy)ethyl]-4-[[3-[3-(difluoromethyl)-1H-pyrazol-4-yl]imidazo[1,2-a]pyrazin-8-yl]amino]-2-ethylbenzamide] | – | 2.14 |
| O=C(c1ccc(Nc2nccn3c(-c4c[nH]nc4C(F)(F)F)cnc23)cc1Cl)N1CCNCC1 [Example 431, [2-chloro-4-[[3-[3-(trifluoromethyl)-1H-pyrazol-4-yl]imidazo[1,2-a]pyrazin-8-yl]amino]phenyl]-piperazin-1-ylmethanone] | – | 0.449 |
| CCc1cc(Nc2nccn3c(-c4c[nH]nc4C(F)(F)F)cnc23)ccc1C(=O)NCCNC(=O)[C@@H]1C[C@@H](O)CN1 [Example 432, (2S,4R)-N-[2-[[2-ethyl-4-[[3-[3-(trifluoromethyl)-1H-pyrazol-4-yl]imidazo[1,2-a]pyrazin-8-yl]amino]benzoyl]amino]ethyl]-4-hydroxypyrrolidine-2-carboxamide formate] | 0.751 | – |
| O=C(NCCNC(=O)[C@@H]1C[C@@H](O)CN1)c1ccc(Nc2nccn3c(-c4c[nH]nc4C(F)(F)F)cnc23)cc1Cl [Example 433, (2S,4R)-N-[2-[[2-chloro-4-[[3-[3-(trifluoromethyl)-1H-pyrazol-4-yl]imidazo[1,2-a]pyrazin-8-yl]amino]benzoyl]amino]ethyl]-4-hydroxypyrrolidine-2-carboxamide formate] | 2.66 | – |
| CCc1cc(Nc2nccn3c(-c4c[nH]nc4C(F)(F)F)cnc23)ccc1C(=O)NCCCNC(=O)[C@@H]1C[C@@H](O)CN1 [Example 434, (2S,4R)-N-[3-[[2-ethyl-4-[[3-[3-(trifluoromethyl)-1H-pyrazol-4-yl]imidazo[1,2-a]pyrazin-8-yl]amino]benzoyl]amino]propyl]-4-hydroxypyrrolidine-2-carboxamide formate] | 0.463 | – |
| CCc1cc(Nc2nccn3c(-c4c[nH]nc4C(F)(F)F)cnc23)ccc1C(=O)NCCNC(=O)[C@@H]1C[C@@](O)(CC)CN1 [Example 435, (2S,4S)-4-ethyl-N-[2-[[2-ethyl-4-[[3-[3-(trifluoromethyl)-1H-pyrazol-4-yl]imidazo[1,2-a]pyrazin-8-yl]amino]benzoyl]amino]ethyl]-4-hydroxypyrrolidine-2-carboxamide formate] | 2.69 | – |
| Cc1cc(Nc2nccn3c(-c4c[nH]nc4C(F)(F)F)cnc23)ccc1C(=O)N1CCN(C(=O)C2(O)CCCNC2)CC1 (centres unmarked) [Example 436, [4-(3-hydroxypiperidine-3-carbonyl)piperazin-1-yl]-[2-methyl-4-[[3-[3-(trifluoromethyl)-1H-pyrazol-4-yl]imidazo[1,2-a]pyrazin-8-yl]amino]phenyl]methanone hydrochloride] | – | 0.536 |
| CCc1cc(Nc2nccn3c(-c4cn(C)nc4C(F)(F)F)cnc23)ccc1C(=O)NCCCNC(=O)[C@@H]1C[C@@H](O)CN1 [Example 437, (2S,4R)-N-[3-[[2-ethyl-4-[[3-[1-methyl-3-(trifluoromethyl)pyrazol-4-yl]imidazo[1,2-a]pyrazin-8-yl]amino]benzoyl]amino]propyl]-4-hydroxypyrrolidine-2-carboxamide] | – | 1.02 |
| O=C(N[C@H]1CNC[C@@H]1O)N1CCN(C(=O)c2ccc(Nc3nccn4c(-c5c[nH]nc5C(F)(F)F)cnc34)cc2Cl)CC1 [Example 440, 4-[2-chloro-4-[[3-[3-(trifluoromethyl)-1H-pyrazol-4-yl]imidazo[1,2-a]pyrazin-8-yl]amino]benzoyl]-N-[(3S,4S)-4-hydroxypyrrolidin-3-yl]piperazine-1-carboxamide formate] | 0.497 | – |
| O=C(N[C@@H]1CNC[C@H]1O)N1CCN(C(=O)c2ccc(Nc3nccn4c(-c5c[nH]nc5C(F)(F)F)cnc34)cc2Cl)CC1 [Example 441, 4-[2-chloro-4-[[3-[3-(trifluoromethyl)-1H-pyrazol-4-yl]imidazo[1,2-a]pyrazin-8-yl]amino]benzoyl]-N-[(3R,4R)-4-hydroxypyrrolidin-3-yl]piperazine-1-carboxamide formate] | 0.617 | – |
| Cc1cc(Nc2nccn3c(-c4c[nH]nc4C(F)(F)F)cnc23)ccc1C(=O)NCCCNC(=O)[C@@H]1C[C@@H](O)CN1 [Example 442, formic acid; (2S,4R)-4-hydroxy-N-[3-[[2-methyl-4-[[3-[3-(trifluoromethyl)-1H-pyrazol-4-yl]imidazo[1,2-a]pyrazin-8-yl]amino]benzoyl]amino]propyl]pyrrolidine-2-carboxamide] | 0.622 | – |
| C[C@@]1(O)CN[C@H](C(=O)N2CCN(C(=O)c3ccc(Nc4nccn5c(-c6c[nH]nc6C(F)(F)F)cnc45)cc3Cl)CC2)C1 [Example 443, [2-chloro-4-[[3-[3-(trifluoromethyl)-1H-pyrazol-4-yl]imidazo[1,2-a]pyrazin-8-yl]amino]phenyl]-[4-[(2S,4S)-4-hydroxy-4-methylpyrrolidine-2-carbonyl]piperazin-1-yl]methanone formate] | 0.81 | – |
| Cc1cc(Nc2nccn3c(-c4c[nH]nc4C(F)(F)F)cnc23)ccc1C(=O)NCCNC(=O)[C@@H]1C[C@@H](O)CN1 [Example 444, formic acid; (2S,4R)-4-hydroxy-N-[2-[[2-methyl-4-[[3-[3-(trifluoromethyl)-1H-pyrazol-4-yl]imidazo[1,2-a]pyrazin-8-yl]amino]benzoyl]amino]ethyl]pyrrolidine-2-carboxamide] | 1.43 | – |
| CCc1cc(Nc2nccn3c(-c4cn(C)nc4C(F)(F)F)cnc23)ccc1C(=O)NCCNC(=O)[C@@H]1C[C@@H](O)CN1 [Example 445, (2S,4R)-N-[2-[[2-ethyl-4-[[3-[1-methyl-3-(trifluoromethyl)pyrazol-4-yl]imidazo[1,2-a]pyrazin-8-yl]amino]benzoyl]amino]ethyl]-4-hydroxypyrrolidine-2-carboxamide formate] | 1.48 | – |
| CCc1cc(Nc2nccn3c(-c4cn(C)nc4C(F)(F)F)cnc23)ccc1C(=O)NCCNC(=O)[C@@H]1C[C@@](O)(CC)CN1 [Example 446, (2S,4S)-4-ethyl-N-[2-[[2-ethyl-4-[[3-[1-methyl-3-(trifluoromethyl)pyrazol-4-yl]imidazo[1,2-a]pyrazin-8-yl]amino]benzoyl]amino]ethyl]-4-hydroxypyrrolidine-2-carboxamide formate] | 2.27 | – |
| CCc1cc(Nc2nccn3c(-c4cn(C)nc4C(F)(F)F)cnc23)ccc1C(=O)NCCNC(=O)[C@@H]1C[C@](C)(O)CN1 [Example 447, (2S,4S)-N-[2-[[2-ethyl-4-[[3-[1-methyl-3-(trifluoromethyl)pyrazol-4-yl]imidazo[1,2-a]pyrazin-8-yl]amino]benzoyl]amino]ethyl]-4-hydroxy-4-methylpyrrolidine-2-carboxamide formate] | 4.19 | – |
